Test results: patent US20080161232A1, “C5a Receptor Antagonist” (JERINI AG, priority 2005, published 2008)
Positions of bridges follow the written chain, without caps; N, C: chain ends. Non-standard residues stand in square brackets, D forms with d. Residues, ends and D or L forms follow the SMILES beside them. Phe(3-Cl) = N[C@@H](Cc1cccc(Cl)c1)C(=O)O; Phe(3-Me) = Cc1cccc(C[C@H](N)C(=O)O)c1; Phe(4-F) = N[C@@H](Cc1ccc(F)cc1)C(=O)O; Bta = N[C@@H](Cc1csc2ccccc12)C(=O)O; Hyp = O=C(O)[C@@H]1C[C@@H](O)CN1; d(hLeu) = CC(C)CC[C@@H](N)C(=O)O; NMeN = CN[C@@H](CC(N)=O)C(=O)O; dCha = N[C@H](CC1CCCCC1)C(=O)O; Pip = O=C(O)[C@@H]1CCCCN1; Nle = CCCC[C@H](N)C(=O)O; Orn = NCCC[C@H](N)C(=O)O

target: T1, human C5aR(CD88) (Homo sapiens, UniProt P21730); assay: Determination of the IC50 value in an enzyme release assay (functional assay, antagonistic activity); format: cell-based; details: antagonistic activity; IC50 group in enzyme release assay, RBL cells expressing human C5aR(CD88); read-out: activity (group)
T1 construct: expressed in transfected cells; host or cells: rat basophilic leukemia cells (RBL)
T1 sequence (P21730 1-350): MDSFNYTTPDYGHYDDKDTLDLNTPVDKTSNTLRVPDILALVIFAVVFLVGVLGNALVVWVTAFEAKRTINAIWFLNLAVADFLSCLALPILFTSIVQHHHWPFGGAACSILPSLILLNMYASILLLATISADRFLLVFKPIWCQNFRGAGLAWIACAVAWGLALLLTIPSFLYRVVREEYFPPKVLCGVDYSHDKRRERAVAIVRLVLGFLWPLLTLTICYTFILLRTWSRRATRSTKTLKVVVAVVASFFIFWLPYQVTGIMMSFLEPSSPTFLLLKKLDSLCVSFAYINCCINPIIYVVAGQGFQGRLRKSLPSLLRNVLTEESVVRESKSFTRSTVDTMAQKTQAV

Compared with `CC(=O)N[C@@H](Cc1ccccc1)C(=O)N[C@H]1CCCNC(=O)[C@H](Cc2ccccc2)NC(=O)[C@H](Cc2csc3ccccc23)NC(=O)[C@@H](CCC(C)C)NC(=O)[C@@H]2C[C@@H](O)CN2C1=O` [Compound 177, Ac-Phe-[Orn-Hyp-hle-Bta-Phe]] (Ac-F[Orn][Hyp][d(hLeu)][Bta]F; lactam 2-C), `CC(=O)N[C@@H](Cc1ccccc1)C(=O)N[C@H]1CCCNC(=O)[C@H](Cc2ccccc2)NC(=O)[C@H](Cc2c[nH]c3ccccc23)NC(=O)[C@@H](CCC(C)C)NC(=O)[C@@H]2C[C@@H](O)CN2C1=O` [Compound 181, Ac-Phe-[Orn-Hyp-hle-Trp-Phe]] (Ac-F[Orn][Hyp][d(hLeu)]WF; lactam 2-C) is lower in IC50: 50 to 200 nM for the first, 20 to 50 nM for the second. The second is the more potent here.

`CC(=O)N[C@@H](Cc1ccccc1)C(=O)N[C@H]1CCCNC(=O)[C@H](Cc2ccccc2)NC(=O)[C@H](Cc2cccc(Cl)c2)NC(=O)[C@@H](CCC(C)C)NC(=O)[C@@H]2C[C@@H](O)CN2C1=O` [Compound 178, Ac-Phe-[Orn-Hyp-hle-Mcf-Phe]] (Ac-F[Orn][Hyp][d(hLeu)][Phe(3-Cl)]F; lactam 2-C) and `CC(=O)N[C@@H](Cc1ccccc1)C(=O)N[C@H]1CCCNC(=O)[C@H](Cc2ccccc2)NC(=O)[C@H](Cc2ccc(F)cc2)NC(=O)[C@@H](CCC(C)C)NC(=O)[C@@H]2C[C@@H](O)CN2C1=O` [Compound 180, Ac-Phe-[Orn-Hyp-hle-Pff-Phe]] (Ac-F[Orn][Hyp][d(hLeu)][Phe(4-F)]F; lactam 2-C) fall in the same range of IC50: 50 to 200 nM for the first, 50 to 200 nM for the second.

`CCCC[C@@H]1NC(=O)[C@H](Cc2ccc(F)cc2)NC(=O)[C@@H](CCC(C)C)NC(=O)[C@@H]2C[C@@H](O)CN2C(=O)[C@@H](NC(=O)[C@H](Cc2ccccc2)NC(C)=O)CCCNC1=O` [Compound 179, Ac-Phe-[Orn-Hyp-hle-Pff-Nle]] (Ac-F[Orn][Hyp][d(hLeu)][Phe(4-F)][Nle]; lactam 2-C) and `CCCC[C@@H]1NC(=O)[C@H](Cc2ccc(F)cc2)NC(=O)[C@@H](CC2CCCCC2)NC(=O)[C@@H]2CCCN2C(=O)[C@@H](NC(=O)[C@H](Cc2ccccc2)NC(C)=O)CCCNC1=O` [Compound 186, Ac-Phe-[Orn-Pro-cha-Pff-Nle]] (Ac-F[Orn]P[dCha][Phe(4-F)][Nle]; lactam 2-C) fall in the same range of IC50: 50 to 200 nM for the first, 50 to 200 nM for the second.

`CCCC[C@@H]1NC(=O)[C@H](Cc2c[nH]c3ccccc23)NC(=O)[C@H](Cc2cccc(C)c2)NC(=O)[C@@H]2C[C@@H](O)CN2C(=O)[C@@H](NC(=O)[C@H](Cc2ccccc2)NC(C)=O)CCCNC1=O` [Compound 182, Ac-Phe-[Orn-Hyp-Mmf-Trp-Nle]] (Ac-F[Orn][Hyp][Phe(3-Me)]W[Nle]; lactam 2-C) and `CC(=O)N[C@@H](Cc1ccccc1)C(=O)N[C@H]1CCCNC(=O)[C@H](Cc2ccccc2)NC(=O)[C@H](Cc2c[nH]c3ccccc23)NC(=O)[C@H](Cc2cccc(C)c2)NC(=O)[C@@H]2C[C@@H](O)CN2C1=O` [Compound 183, Ac-Phe-[Orn-Hyp-Mmf-Trp-Phe]] (Ac-F[Orn][Hyp][Phe(3-Me)]WF; lactam 2-C) fall in the same range of IC50: 50 to 200 nM for the first, 50 to 200 nM for the second.

`CCCC[C@@H]1NC(=O)[C@H](Cc2c[nH]c3ccccc23)NC(=O)[C@@H](CC2CCCCC2)NC(=O)[C@H](CC(N)=O)N(C)C(=O)[C@@H](NC(=O)[C@H](Cc2ccccc2)NC(C)=O)CCCNC1=O` [Compound 184, Ac-Phe-[Orn-NMD-cha-Trp-Nle]] (Ac-F[Orn][NMeN][dCha]W[Nle]; lactam 2-C) and `CC(=O)N[C@@H](Cc1ccccc1)C(=O)N[C@H]1CCCNC(=O)[C@H](Cc2ccccc2)NC(=O)[C@H](Cc2ccc(F)cc2)NC(=O)[C@@H](CC2CCCCC2)NC(=O)[C@@H]2CCCN2C1=O` [Compound 187, Ac-Phe-[Orn-Pro-cha-Pff-Phe]] (Ac-F[Orn]P[dCha][Phe(4-F)]F; lactam 2-C) fall in the same range of IC50: 50 to 200 nM for the first, 50 to 200 nM for the second.

With `CC(=O)N[C@@H](Cc1ccccc1)C(=O)N[C@H]1CCCNC(=O)[C@H](Cc2ccccc2)NC(=O)[C@H](Cc2csc3ccccc23)NC(=O)[C@@H](CCC(C)C)NC(=O)[C@@H]2CCCCN2C1=O` [Compound 185, Ac-Phe-[Orn-Pip-hle-Bta-Phe]] (Ac-F[Orn][Pip][d(hLeu)][Bta]F; lactam 2-C) the IC50 was 50 to 200 nM.
